Experimental data: patent US8546421B1, “Oncogenic-RAS-signal dependent lethal compounds” (The Trustees of Columbia University in the City of New York, priority 2007, dated 2013)
Converted amounts (≈) assume the structure as drawn.

Columns and labels:
NCI/ADR-RES = test: NCI60 anti-cancer screening
OVCAR-8 = test: NCI60 anti-cancer screening
SF-539 = test: NCI60 anti-cancer screening
[1] = test system: BJ-TERT/LT/ST/RAS^V12 cells; test: Alamar blue growth inhibition in dilution series; assay type: cell-based, human; details: Homo sapiens, alamar blue
TK-10 = test: NCI60 anti-cancer screening
HL-60(TB) [2] = details: Leukemia
OVCAR-3 = test: cells; details: Homo sapiens
SF-268 = test: NCI60 anti-cancer screening
SN12C = test: NCI60 anti-cancer screening
SK-MEL-2 = test: NCI60 anti-cancer screening
[3] = test system: BJ-TERT/LT/ST/RAS^V12 cells; test: Counter screening with iron chelators; assay type: cell-based, human; details: DFOM and three additional iron-binding compounds; 24 hours
Method: Cells were treated with iron chelators by transferring 4 μL of 1 mM deferoxamine mesylate (Calbiochem, cat.#252750), 500 μM compound 1a (Chembridge, cat.#5175092), 1 mM compound 2 (Ryan Scientific, cat.#LT01784723), or 100 μM compound 311 (Chembridge, cat.#5135701) in growth media to the assay plate. Then, 4 μL was transferred from the ‘10× lethal plate’ (described in ‘counter screening with biologically active compounds’) to the assay plate in order to induce cell death. Assay plates were incubated for 24 hours and alamar blue was added to the plates at a final concentration of 10%.

HCT-116 = test: NCI60 anti-cancer screening
MDA-MB-435 = test: NCI60 anti-cancer screening
A498 = test: NCI60 anti-cancer screening
[4] = test system: BJ cell system (BJ-TERT, BJ-TERT/LT/ST, BJ-TERT/LT/ST/RAS^V12, DRD cells); test: Alamar blue potency and selectivity in the engineered BJ cell system; details: alamar blue
Method: Empty “step-daughter plates” were filled with 50 μL DMEM, except for columns 3 and 13, where 100 μL of hit compound solution were cherry-picked from daughter plates. After compound transfer, 2-fold dilution series across columns 3 through 12 and columns 13 through 22 was made by transferring 50 μL of compound solution to the next column successively (10-point dilution series), with extensive mixing. Hit-picking and 2-fold dilution series were carried out using Biomek FX Span-8 module (Beckman Coulter). Assay plates were prepared by seeding 1,000 BJ-TERT, BJ-TERT/LT/ST, and BJ-TERT/LT/ST/RAS^V12 cells per well in 36 μL growth medium. Cells in assay plates were treated with compounds from step-daughter plates by transferring 4 μL. The final concentration of the compound was 5.33 μg/mL to 0.01 μg/mL in this 10-point, 2-fold dilution series. Assay plates were returned to the culture incubator and maintained for 48 hours before adding alamar blue.
Fresh daughter plates were made from the mother plate and cherry-picked hits from the first round, 2-fold dilution series experiment as described above. Assay plates were prepared by seeding 1,000 BJ-TERT, BJ-TERT/LT/ST, BJ-TERT/LT/ST/RAS^V12 or BJ-TERT/p53DD/CDK4/cyclinD1/ST/RAS^V12 (DRD) cells per well in 32 μL growth media. Cells in the assay plates were treated with compounds from the step-daughter plate by transferring 8 μL solution. The final concentration of the compound was 10.66 μg/mL to 0.02 μg/mL in a 10-point, 2-fold dilution series manner. Assay plates were returned to the culture incubator and maintained for 48 hours before adding alamar blue.
Cells were seeded in 384-well assay plates, treated with candidate compounds, and incubated in the culture incubator in 40 μL culture volume per well. […] Plates were incubated further for 16 hours to allow reduction of alamar blue, which results in the generation of red fluorescence. The fluorescence intensity was determined using a Victor 3 plate reader (Perkin Elmer) with a 535 nm excitation filter and a 590 nm emission filter.
In the subsequent two-fold dilution series testing, selectivity was calculated as the ratio of GI50 values in BJ-TERT/LT/ST and BJ-TERT/LT/ST/RAS^V12 cells. […] DRD cells are also derived from BJ primary cells and the effects of mutations in both lines should be similar.

MOLT-4 = test: NCI60 anti-cancer screening
SW-620 = test: NCI60 anti-cancer screening
SK-MEL-5 = test: NCI60 anti-cancer screening
T-47D = test: NCI60 anti-cancer screening
MDA-MB-231/ATCC = test: NCI60 anti-cancer screening
MCF-7 = test: NCI60 anti-cancer screening
NCI-H23 = test: NCI60 anti-cancer screening
COLO 205 = test: NCI60 anti-cancer screening
HL-60(TB) [5] = test: cells; details: Homo sapiens
HOP-92 = test: NCI60 anti-cancer screening
UACC-62 = test: NCI60 anti-cancer screening
K-562 = test: NCI60 anti-cancer screening

C=C1CCC2C(C)(C)CCC[C@]2(C)C1CC/C(C)=C\CC/C(C)=N/NC(N)=S (stereo partly drawn) [Compound 36]
GI 100% (NCI/ADR-RES; Breast Cancer): 2.34 µM
GI50 (NCI/ADR-RES; Homo sapiens): 1.04 µM
CC50 (NCI/ADR-RES; Homo sapiens, read-out: LC 50%): 5.27 µM
GI50 (OVCAR-8; Homo sapiens, OVCAR-8): 1.16 µM
CC50 (OVCAR-8; Homo sapiens, OVCAR-8, read-out: LC 50%): 7.48 µM
GI 100% (OVCAR-8; OVCAR-8, Ovarian Cancer): 2.94 µM
GI50 (SF-539; Homo sapiens, SF-539): 0.191 µM
CC50 (SF-539; Homo sapiens, SF-539, read-out: LC 50%): 0.638 µM
GI 100% (SF-539; SF-539, CNS Cancer): 0.349 µM
IC90 [1]: 1 mg/L (≈ 2.48 µM)
GI50 (TK-10; Homo sapiens, TK-10): 0.296 µM
CC50 (TK-10; Homo sapiens, TK-10, read-out: LC 50%): 3.47 µM
GI 100% (TK-10; TK-10, Renal Cancer): 1.08 µM
GI 100% (HL-60(TB) [2]): 0.545 µM
GI50 (OVCAR-3; OVCAR-3): 0.204 µM
CC50 (OVCAR-3; OVCAR-3, read-out: LC 50%): 4.2 µM
GI50 (SF-268; Homo sapiens, SF-268): 1.09 µM
CC50 (SF-268; Homo sapiens, SF-268, read-out: LC 50%): 5.74 µM
GI 100% (SF-268; SF-268, CNS Cancer): 2.5 µM
GI50 (SN12C; Homo sapiens): 0.351 µM
CC50 (SN12C; Homo sapiens, read-out: LC 50%): 3.67 µM
GI 100% (SN12C; Renal Cancer): 1.35 µM
GI50 (SK-MEL-2; Homo sapiens, SK-MEL-2): 0.297 µM
CC50 (SK-MEL-2; Homo sapiens, SK-MEL-2, read-out: LC 50%): 4.93 µM
GI 100% (SK-MEL-2; SK-MEL-2, Melanoma): 1.01 µM
effect of iron chelators on compound activity / induced cell death [3]: significantly inhibited
GI 100% (HCT-116; HCT-116, Colon Cancer): 1.11 µM
GI50 (HCT-116; Homo sapiens, HCT-116): 0.252 µM
CC50 (HCT-116; Homo sapiens, HCT-116, read-out: LC 50%): 3.32 µM
GI50 (MDA-MB-435; Homo sapiens, MDA-MB-435): 0.175 µM
CC50 (MDA-MB-435; Homo sapiens, MDA-MB-435, read-out: LC 50%): 3 µM
GI 100% (MDA-MB-435; MDA-MB-435, Breast Cancer): 0.781 µM
GI 100% (A498; A498, Renal Cancer): 1.29 µM
GI50 (A498; Homo sapiens, A498): 0.268 µM
CC50 (A498; Homo sapiens, A498, read-out: LC 50%): 3.85 µM
degree of selectivity between BJ-TERT/LT/ST/RAS^V12 and BJ-TERT [4]: up to 16 fold
growth inhibitory activity and selectivity in the BJ cell system (in words) ([4]; structural analogs and hits): slightly lower potency and selectivity than the original hit
GI50 (MOLT-4; Homo sapiens, MOLT-4): 0.0773 µM
CC50 (MOLT-4; Homo sapiens, MOLT-4, read-out: LC 50%): 7.39 µM
GI 100% (MOLT-4; MOLT-4, Leukemia): 1.1 µM
GI50 (SW-620; Homo sapiens, SW-620): 0.184 µM
CC50 (SW-620; Homo sapiens, SW-620, read-out: LC 50%): 2.54 µM
GI 100% (SW-620; SW-620, Colon Cancer): 0.569 µM
GI50 (SK-MEL-5; Homo sapiens, SK-MEL-5): 0.209 µM
CC50 (SK-MEL-5; Homo sapiens, SK-MEL-5, read-out: LC 50%): 3.05 µM
GI 100% (SK-MEL-5; SK-MEL-5, Melanoma): 0.898 µM
GI50 (T-47D; Homo sapiens, T47D): 0.701 µM
CC50 (T-47D; Homo sapiens, T47D, read-out: LC 50%): > 10 µM
GI 100% (T-47D; T-47D, Breast Cancer): 3.21 µM
GI50 (MDA-MB-231/ATCC; Homo sapiens, MDA-MB-231): 0.341 µM
CC50 (MDA-MB-231/ATCC; Homo sapiens, MDA-MB-231, read-out: LC 50%): 3.27 µM
GI 100% (MDA-MB-231/ATCC; MDA-MB-231/ATCC, Breast Cancer): 1.36 µM
GI50 (MCF-7; Homo sapiens, MCF7): 0.265 µM
CC50 (MCF-7; Homo sapiens, MCF7, read-out: LC 50%): 3.83 µM
GI 100% (MCF-7; MCF-7, Breast Cancer): 1.34 µM
GI50 (NCI-H23; Homo sapiens, NCI-H23): 0.44 µM
CC50 (NCI-H23; Homo sapiens, NCI-H23, read-out: LC 50%): 4.23 µM
GI 100% (NCI-H23; NCI-H23, Non-small cell lung carcinoma): 1.65 µM
GI 100% (COLO 205; COLO 205, Colon Cancer): 0.451 µM
GI50 (COLO 205; Homo sapiens, COLO 205): 0.184 µM
CC50 (COLO 205; Homo sapiens, COLO 205, read-out: LC 50%): 1.46 µM
GI50 (HL-60(TB) [5]; HL-60): 0.163 µM
CC50 (HL-60(TB) [5]; HL-60, read-out: LC 50%): 2.62 µM
GI 100% (HOP-92; HOP-92, Non-small cell lung carcinoma): 1.52 µM
GI50 (HOP-92; Homo sapiens, HOP-92): 0.479 µM
CC50 (HOP-92; Homo sapiens, HOP-92, read-out: LC 50%): 3.96 µM
GI50 (UACC-62; Homo sapiens, UACC-62): 0.214 µM
CC50 (UACC-62; Homo sapiens, UACC-62, read-out: LC 50%): 0.853 µM
GI 100% (UACC-62; UACC-62, Melanoma): 0.427 µM
GI50 (K-562; Homo sapiens, K562): 0.267 µM
CC50 (K-562; Homo sapiens, K562, read-out: LC 50%): 3.51 µM
GI 100% (K-562; K-562, Leukemia): 1.08 µM
